Measured values published in patent US20210267865A1, “COSMETIC COMPOSITION FOR INCREASING SKIN EXFOLIATION” (LG HOUSEHOLD & HEALTH CARE LTD., priority 2018, published 2021).

What was measured:
[1] = test system: pig skin; assay: Evaluation of pig skin exfoliation (number of exfoliated cells from biopsied pig skin); conditions: for activity versus gluconolactone (PHA) or lactic acid (AHA) at pH 4: neutral or weakly acidic pH of 5-7
Description: The exfoliation evaluation method described in Journal of the European Academy of Dermatology and Venereology, 2014, 28, 415-423 was used. Specifically, pig skin was biopsied and a sample to be tested was added. Then, the number of exfoliated cells was measured with a cell counter and was plotted with water as a negative control group (0%) and 10% gluconolactone at pH 4 as a positive control group (100%).

[2] = test system: stratum corneum of inside forearm and upper arm; assay: Evaluation of exfoliation turnover enhancement by DHA staining (human skin test); format: in vivo; conditions: for turnover time (TT100): polyol humectant content 10% or 50%, non-application group 20 days
Description: DHA staining for evaluating the speed of exfoliation turnover was conducted for 10 healthy males aged between 20 and 40 years according to the method described in Dermatology 1993, 186, 133-137. Prior to sample application, the color of the inside forearm and upper arm of the test subjects was measured with Chroma Meter. Then, a 1.5×1.5 cm gauze soaked with about 0.4 mL of 10% dihydroxyacetone (DHA) was attached to the inside forearm and upper arm for 8 hours. 48 hours later, the color of the part that was pigmented brown by DHA was compared with that before the sample application. Subsequently, while applying the sample twice a day, the time required to return to the original skin color was measured by measuring the skin color every day with Chroma Meter. TT (turnover time) 100% means the time required for the existing stratum corneum to be completely (100%) replaced with a new stratum corneum. In this experiment, the time required for the skin pigmented by DHA corneum to completely return to the original color was compared by regression analysis. The result was compared with that of the negative control group (20 days).

[3] = with glycerin, dipropylene glycol or 1,3-butylene glycol, polyol humectant content exceeding 10 wt %

Compound: C[N+](C)(C)CC(O)CC(=O)[O-] (centres unmarked) [Carnitine, carnitine]
- exfoliation effect ([1]; 5% carnitine, pH 7, concentration of glycerin higher than 10 wt % (FIG. 2)): 0%
- exfoliation activity ([1]; 5% carnitine, pH 7, with 10% or 12% glycerin, dipropylene glycol or 1,3-butylene glycol (FIG. 5)): decreased to the levels where human skin test is meaningless
- Exfoliation ability % ([1]; carnitine 0.5 wt %, glycerin 0 wt %): 61%
- Exfoliation ability % ([1]; carnitine 0.5 wt %, glycerin 0.5 wt %): 50%
- Exfoliation ability % ([1]; carnitine 0.5 wt %, glycerin 1 wt %): 18%
- Exfoliation ability % ([1]; carnitine 0.5 wt %, glycerin 5 wt %): 11%
- Exfoliation ability % ([1]; carnitine 0.5 wt %, glycerin 10 wt %): 0%
- Exfoliation ability % ([1]; carnitine 5 wt %, glycerin 0 wt %): 100%
- Exfoliation ability % ([1]; carnitine 5 wt %, glycerin 0.1 wt %): 89%
- Exfoliation ability % ([1]; carnitine 5 wt %, glycerin 0.5 wt %): 91%
- Exfoliation ability % ([1]; carnitine 5 wt %, glycerin 1 wt %): 55%
- Exfoliation ability % ([1]; carnitine 5 wt %, glycerin 2 wt %): 53%
- Exfoliation ability % ([1]; carnitine 5 wt %, glycerin 3 wt %): 30%
- Exfoliation ability % ([1]; carnitine 5 wt %, glycerin 4 wt %): 19%
- Exfoliation ability % ([1]; carnitine 5 wt %, glycerin 5 wt %): 12%
- Exfoliation ability % ([1]; carnitine 5 wt %, glycerin 7 wt %): 5%
- Exfoliation ability % ([1]; carnitine 5 wt %, glycerin 10 wt %): 4%
- Exfoliation ability % ([1]; carnitine 5 wt %, glycerin 12 wt %): 0%
- Exfoliation ability % ([1]; carnitine 5 wt %, glycerin 15 wt %): 0%
- activity versus gluconolactone (PHA) or lactic acid (AHA) at pH 4 [1]: comparable to or better than
- exfoliation effect [1, 3]: 0%
- turnover time (TT100) [2]: no significant difference

Compound: N[C@@H](CO)C(=O)O [Serine, serine]
- exfoliating effect ([1]; 5% serine with humectant mixtures (glycerin 1:DPG 1:1,3-BG 1) (FIG. 6)): decreased similarly
- exfoliation effect ([1]; 5% serine, pH 6, concentration of glycerin 10% or higher (FIG. 1)): 0%
- exfoliation activity ([1]; 5% serine, pH 6, dipropylene glycol or 1,3-butylene glycol exceeding 10% (FIGS. 3 and 4)): decreased below that of water (negative control group)
- activity versus gluconolactone (PHA) or lactic acid (AHA) at pH 4 [1]: comparable to or better than
- Exfoliation ability % ([1]; serine 0.5 wt %, glycerin 0 wt %): 56%
- Exfoliation ability % ([1]; serine 0.5 wt %, glycerin 0.5 wt %): 53%
- Exfoliation ability % ([1]; serine 0.5 wt %, glycerin 1 wt %): 34%
- Exfoliation ability % ([1]; serine 0.5 wt %, glycerin 5 wt %): 19%
- Exfoliation ability % ([1]; serine 0.5 wt %, glycerin 10 wt %): 13%
- Exfoliation ability % ([1]; serine 5 wt %, glycerin 0 wt %): 91%
- Exfoliation ability % ([1]; serine 5 wt %, glycerin 0.1 wt %): 85%
- Exfoliation ability % ([1]; serine 5 wt %, glycerin 0.5 wt %): 86%
- Exfoliation ability % ([1]; serine 5 wt %, glycerin 1 wt %): 59%
- Exfoliation ability % ([1]; serine 5 wt %, glycerin 2 wt %): 47%
- Exfoliation ability % ([1]; serine 5 wt %, glycerin 3 wt %): 23%
- Exfoliation ability % ([1]; serine 5 wt %, glycerin 4 wt %): 26%
- Exfoliation ability % ([1]; serine 5 wt %, glycerin 5 wt %): 21%
- Exfoliation ability % ([1]; serine 5 wt %, glycerin 7 wt %): 16%
- Exfoliation ability % ([1]; serine 5 wt %, glycerin 10 wt %): 16%
- Exfoliation ability % ([1]; serine 5 wt %, glycerin 12 wt %): −2%
- Exfoliation ability % ([1]; serine 5 wt %, glycerin 15 wt %): −5%
- exfoliation effect [1, 3]: 0%
- decrease of TT100% versus non-application group ([2]; 5% serine, applied twice a day): 6 days
- TT100% (turnover time) ([2]; 5% serine, applied twice a day, non-application group 20 days (FIG. 13)): 14 days
- turnover time (TT100) [2]: no significant difference
- visual change after application for 10 days ([2]; serine alone at concentrations of 0.5% and 5% (FIG. 12)): effective
- visual change after application for 10 days ([2]; serine with glycerin concentration 10% or 50% (FIG. 12)): no significant difference from the non-application group
- TT100% (turnover time) ([2]; serine with glycerin concentration 10% or 50% (FIG. 13)): no significant difference from the non-application group
